Common to all, as to experiment: inhibition of tumour cell growth, NCI panel, 48 h
Assay [1] deals with DU-145 prostate.
In assay [2] the test system is CCRF-CEM leukemia.
Assay [3] concerns HOP-92 NSCLC.
Assay [4] has as its system IGROV1 ovarian.
The subject of assay [5] is A549 NSCLC.
Assay [6] has as its system MCF7 breast.
The test system of assay [7] is TK-10 renal.
For assay [8], the system named is OVCAR-5 ovarian.
Assay [9] relates to HT29 colon.
In assay [10] the test system is SK-MEL-28 melanoma.

SMILES strings stand for the structures. “And” between values parts separate entries of the source, which are not always exact repeats. Equal values may be shown once.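 These data come from cells grown in 96-well plates and exposed to compound for 48 hours at five concentrations. GI50 = concentration required for 50% inhibition of growth. At the TGI there is no net growth.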

For `Cc1ccc(NC(=O)N2CCCCC2)cc1[N+](=O)[O-]`, the GI50 in assay [1], in assay [2], in assay [3], in assay [4], in assay [5] and in [6] was greater than 100 µM throughout. In addition, the GI50 in [7], in assay [8], in [9] and in assay [10] was greater than 100 µM in each case. The TGI in assay [1], in assay [2], in [3], in assay [4], in assay [5] and in assay [6] was greater than 100 µM each time. Also, the TGI in assay [7], in [8], in assay [9] and in [10] was greater than 100 µM throughout.
Take `CCOc1ccc(NC(=O)c2cc3ccccc3cc2O)cc1`: the GI50 in [1] was greater than 100 µM; in assay [2] it was 17.9 µM; in [3] it was 11.7 µM; in [4], 74 µM; in assay [5] it was greater than 100 µM; in [6], greater than 100 µM. The GI50 in assay [7] was 74.8 µM; in assay [8], greater than 100 µM; in assay [9], greater than 100 µM; in assay [10] it was greater than 100 µM. In addition, the TGI was greater than 100 µM in assay [1]; 41.7 µM in assay [2]; 38.5 µM in assay [3]; greater than 100 µM in [4]; greater than 100 µM in [5]; greater than 100 µM in assay [6]. Further, the TGI in assay [7], in assay [8], in assay [9] and in assay [10] was greater than 100 µM throughout.
Consider `N=C1N=C(N)S/C1=C\c1ccc2ncccc2c1`, for which the GI50 in assay [1], in [2], in assay [3], in assay [4], in assay [5] and in assay [6] was greater than 25 µM throughout. Also, the GI50 in [7], in assay [8], in [9] and in assay [10] was greater than 25 µM in each case. The TGI in [1], in assay [2], in assay [3], in assay [4], in [5] and in [6] was greater than 25 µM each time. The TGI in [7], in [8], in [9] and in assay [10] was greater than 25 µM in each case.
In the case of `CC(C)c1ccc(/C=N/N=C(N)N)cc1`, the GI50 in assay [1] was 11.2 µM; in assay [2] it was 4.33 µM; in [3], 1.35 µM; in assay [4], 11 µM; in assay [5] it was 4.91 µM; in assay [6], 2.76 µM. Further, the GI50 in [7] is 12.9 µM; in [8], 12.9 µM; in [9], 3.19 µM; in assay [10] it was 8.41 µM. Besides, the TGI in assay [1] worked out at 23.8 µM; in assay [2], 47.5 µM; in [3] it was 7.27 µM; in assay [4], 25.8 µM; in [5], 18.8 µM; in [6], 10.1 µM. Further, the TGI was determined as 26.4 µM in assay [7], 30.2 µM in assay [8], 9.65 µM in [9] and 21 µM in assay [10].
With `Clc1ccc(N/N=C(\c2ccccc2)c2ccccn2)nc1`, the GI50 in assay [1] was 0.243 µM; in assay [2] it was 0.0454 µM; in assay [3], 0.445 µM; in assay [4] it was 0.139 µM; in [6] it was 0.0302 µM; in assay [7] it was 0.338 µM. Further, the figures for the GI50 in assay [8], in assay [9] and in assay [10] were 0.234 µM, 0.0364 µM and 0.335 µM, respectively. In addition, the TGI was greater than 100 µM in [1]; > 66.2 µM and 10.2 µM in assay [3]; > 100 µM and 15.9 µM in assay [5]; greater than 100 µM in assay [6]; greater than 100 µM in assay [7]; greater than 100 µM in [8]. Besides, the TGI in assay [9] was > 37.2 µM and 10.8 µM; in assay [10], greater than 100 µM.
With `O=C(Nc1cc(C(F)(F)F)cc(C(F)(F)F)c1)Nc1ccc(OCc2nnc(-c3ccc(Cl)cc3)o2)c(F)c1`, the GI50 in assay [1] was 3.58 µM; in assay [2], 1.88 µM; in assay [3], 1.14 µM; in [4] it was 3.75 µM; in [5] it was 1.97 µM; in assay [6], 1.79 µM. Moreover, the GI50 in [7] was 4.39 µM; in assay [8] it was 2.76 µM; in [9], 2.7 µM; in assay [10], 3.3 µM. The TGI stood at 15.2 µM in assay [1]; 11.3 µM in assay [2]; 4.06 µM in [3]; 39.2 µM in assay [4]; 9.44 µM in assay [5]; 8.47 µM in assay [6]. The TGI in assay [7] was found to be 33.9 µM; in [8] it was 13.7 µM; in assay [9] it was 10.3 µM; in [10], 15.1 µM.
Regarding `OCc1ncc(-c2ccccc2)s1`, the GI50 in assay [1] is greater than 100 µM; in [2], greater than 100 µM; in assay [3] it was 76.5 µM; in [4], greater than 100 µM; in [5] it was greater than 100 µM; in assay [6] it was greater than 100 µM. In addition, the GI50 in assay [7], in assay [8], in assay [9] and in assay [10] was greater than 100 µM in each case. Moreover, the TGI in assay [1], in assay [2], in [3], in [4], in [5] and in assay [6] was greater than 100 µM throughout. For the same compound, the TGI in assay [7], in assay [8], in assay [9] and in assay [10] was greater than 100 µM throughout.
